Data as given in PMC10764104, “Discovery of Molecular Glue Degraders via Isogenic Morphological Profiling” (ACS Chemical Biology, 2023).
Where two headings read alike, the source gives them in different places.

Molecular target: T1, recombinant DDB1-CRBN (Homo sapiens, UniProt Q96SW2)
T1 construct: His; made in house; host or cells: High Five insect cells (baculovirus made and propagated in SF9 cells)
Test: Fluorescence polarization-based competition assay for CRBN binding
Method: Prior to screening the compound library in the isogenic CPA, we assessed their CRBN binding affinities using a fluorescence-polarization-based competition assay with recombinant DDB1-CRBN and the fluorescent tracer 16 (Figure S2). […] We also assessed the cytotoxicity of the CRBN binders in RKO wild-type (WT) cells to determine the appropriate treatment concentration. […]
Fluorescence Polarization‐based competition assay
Fluorescence Polarization assays were performed in 384‐well, Low Volume, Black, Round Bottom, Polystyrene Nonbinding surface Microplates (Corning, #4514). The test compounds were incubated with 200 nM CRBN‐DDB1 and 20 nM Pomalidomide‐fluorescein tracer 16 in 50 mM Tris‐HCl pH 7.5, 200 mM NaCl, 1 mM DTT, 0.02% Triton X‐ 100, and 0.1 µg/µL Bovine Serum Albumin (Sigma Aldrich, #A7030) in a total volume of 25 µL. Fluorescence polarization values were determined with a PerkinElmer Envision reader with FITC FP dual mirror and FITC FP 480 excitation filter and FITC FP 535 emission filters. Fluorescence polarization values of a 10x serial dilution (10 nM to 100 µM) of the test compounds were determined in triplicates. EC50 values were calculated with GraphPad Prism software (version 10.0.2) with a non‐linear fit function (4PL sigmoidal curve fit) adjusting the bottom constrain to the FP value of free tracer. […]

[1] = 200 nM CRBN-DDB1, 20 nM pomalidomide-fluorescein tracer 16, triplicates, read-out: FP_CRBN_binding: CRBN binding affinity, EC50

| EC50 [1] [nM] | SMILES | EC50 [nM] |
| --- | --- | --- |
| 414 | O=C1CCC(N2C(=O)c3ccc(Nc4ccc(OS(=O)(=O)N5CC6(CNC(=O)N6)C5)cc4)cc3C2=O)C(=O)N1 (stereo not shown) [FL2-9] |  |
| 983 | CC1c2cc(F)ccc2CCN1S(=O)(=O)Oc1ccc(Nc2cccc3c2C(=O)N(C2CCC(=O)NC2=O)C3=O)cc1 (stereo not shown) [FL4-17] |  |
| 520 | CN(Cc1ccc2[nH]nnc2c1)S(=O)(=O)Oc1cccc(C2CCC(=O)NC2=O)c1 (stereo not shown) [FL6-15] |  |
| 676 | CN(C)c1ncc(CN(C)S(=O)(=O)Oc2cccc(Nc3cccc4c3C(=O)N(C3CCC(=O)NC3=O)C4=O)c2)cn1 (stereo not shown) [FL3-18] |  |
| 1170 | CN(Cc1ccc2[nH]nnc2c1)S(=O)(=O)Oc1cccc(Nc2ccc3c(c2)C(=O)N(C2CCC(=O)NC2=O)C3=O)c1 (stereo not shown) [FL1-15] |  |
| 1270 | CN(Cc1ncnn1C)S(=O)(=O)Oc1ccc(C2CCC(=O)NC2=O)cc1 (stereo not shown) [FL5-11] |  |
| 830 | O=C1CCC(N2C(=O)c3cccc(Nc4ccc(OS(=O)(=O)N5C[C@@H](F)[C@H](F)C5)cc4)c3C2=O)C(=O)N1 (stereo partly shown) [FL4-10] |  |
| 264 | O=C1CCC(N2C(=O)c3cccc(Nc4cccc(OS(=O)(=O)N5CCC(c6ccncc6)CC5)c4)c3C2=O)C(=O)N1 (stereo not shown) [FL3-16] |  |
| 652 | O=C1CCC(N2C(=O)c3cccc(Nc4ccc(OS(=O)(=O)N5CCOCC5)cc4)c3C2=O)C(=O)N1 (stereo not shown) [FL4-5] |  |
| 445 | O=C1CCC(N2C(=O)c3cccc(Nc4ccc(OS(=O)(=O)N5CC6(CNC(=O)N6)C5)cc4)c3C2=O)C(=O)N1 (stereo not shown) [FL4-9] |  |
| 713 | O=C1CCC(c2cccc(OS(=O)(=O)N3CC4(CNC(=O)N4)C3)c2)C(=O)N1 (stereo not shown) [FL6-9] |  |
| 1140 | O=C1CCC(c2cccc(OS(=O)(=O)N3C[C@@H](F)[C@H](F)C3)c2)C(=O)N1 (stereo partly shown) [FL6-10] |  |
| 645 | O=C1CCC(c2cccc(OS(=O)(=O)N3CCC(c4ccncc4)CC3)c2)C(=O)N1 (stereo not shown) [FL6-16] |  |
| 586 | CN(C)c1ncc(CN(C)S(=O)(=O)Oc2ccc(C3CCC(=O)NC3=O)cc2)cn1 (stereo not shown) [FL5-18] |  |
| 837 | CN(Cc1ncc(C2CC2)o1)S(=O)(=O)Oc1cccc(C2CCC(=O)NC2=O)c1 (stereo not shown) [FL6-14] |  |
| 908 | CC1c2cc(F)ccc2CCN1S(=O)(=O)Oc1ccc(C2CCC(=O)NC2=O)cc1 (stereo not shown) [FL5-17] |  |
| 864 | CC1(C)CN(S(=O)(=O)Oc2ccc(C3CCC(=O)NC3=O)cc2)CCS1(=O)=O (stereo not shown) [FL5-7] |  |
| 522 | CC1(C)CN(S(=O)(=O)Oc2cccc(Nc3ccc4c(c3)C(=O)N(C3CCC(=O)NC3=O)C4=O)c2)CCS1(=O)=O (stereo not shown) [FL1-7] |  |
| 463 | Cc1cn2c(n1)CN(S(=O)(=O)Oc1ccc(Nc3cccc4c3C(=O)N(C3CCC(=O)NC3=O)C4=O)cc1)CC2 (stereo not shown) [FL4-13] |  |
| 1050 | CC1c2cccn2CCN1S(=O)(=O)Oc1ccc(Nc2ccc3c(c2)C(=O)N(C2CCC(=O)NC2=O)C3=O)cc1 (stereo not shown) [FL2-19] |  |
| 682 | O=C1CCC(N2C(=O)c3ccc(Nc4cccc(OS(=O)(=O)N5CCC(c6ccncc6)CC5)c4)cc3C2=O)C(=O)N1 (stereo not shown) [FL1-16] |  |
| 893 | O=C1CCC(c2ccc(OS(=O)(=O)N3C[C@@H](F)[C@H](F)C3)cc2)C(=O)N1 (stereo partly shown) [FL5-10] |  |
| 1270 | O=C1CCC(N2C(=O)c3ccc(Nc4ccc(OS(=O)(=O)N5C[C@@H](F)[C@H](F)C5)cc4)cc3C2=O)C(=O)N1 (stereo partly shown) [FL2-10] |  |

| EC50 [1] [nM] | SMILES | EC50 [nM] |
| --- | --- | --- |
| 1960 | CC1(C)CN(S(=O)(=O)Oc2ccc(Nc3cccc4c3C(=O)N(C3CCC(=O)NC3=O)C4=O)cc2)CC2(CCOC2)O1 (stereo not shown) [FL4-8] |  |
| 4220 | C[C@@H]1C[C@H](C)CN(S(=O)(=O)Oc2ccc(Nc3ccc4c(c3)C(=O)N(C3CCC(=O)NC3=O)C4=O)cc2)C1 (stereo partly shown) [FL2-6] |  |
| 874 | CC1c2cccn2CCN1S(=O)(=O)Oc1cccc(C2CCC(=O)NC2=O)c1 (stereo not shown) [FL6-19] |  |
| 996 | CN(Cc1ncc(C2CC2)o1)S(=O)(=O)Oc1ccc(Nc2cccc3c2C(=O)N(C2CCC(=O)NC2=O)C3=O)cc1 (stereo not shown) [FL4-14] |  |
| 687 | CC1c2cccn2CCN1S(=O)(=O)Oc1ccc(Nc2cccc3c2C(=O)N(C2CCC(=O)NC2=O)C3=O)cc1 (stereo not shown) [FL4-19] |  |
| 675 | O=C1CCC(N2C(=O)c3ccc(Nc4ccc(OS(=O)(=O)N5CC(CCO)C5)cc4)cc3C2=O)C(=O)N1 (stereo not shown) [FL2-2] |  |
| 214 | O=C1CCC(N2C(=O)c3cccc(Nc4cccc(OS(=O)(=O)N5CCOCC5)c4)c3C2=O)C(=O)N1 (stereo not shown) [FL3-5] |  |
| 1050 | CN(C1CC1)S(=O)(=O)Oc1cccc(Nc2ccc3c(c2)C(=O)N(C2CCC(=O)NC2=O)C3=O)c1 (stereo not shown) [FL1-21] |  |
| 2770 | C[C@@H]1C[C@H](C)CN(S(=O)(=O)Oc2cccc(Nc3cccc4c3C(=O)N(C3CCC(=O)NC3=O)C4=O)c2)C1 (stereo partly shown) [FL3-6] |  |
|  | O=C1CCC(c2ccccc2OS(=O)(=O)F)C(=O)N1 (stereo not shown) [FL7] | 72400 |
| 472 | Cc1cn2c(n1)CN(S(=O)(=O)Oc1cccc(Nc3cccc4c3C(=O)N(C3CCC(=O)NC3=O)C4=O)c1)CC2 (stereo not shown) [FL3-13] |  |
| 607 | O=C1CCC(N2C(=O)c3ccc(Nc4cccc(OS(=O)(=O)N5C[C@@H](F)[C@H](F)C5)c4)cc3C2=O)C(=O)N1 (stereo partly shown) [FL1-10] |  |
| 1340 | CC1(C)CN(S(=O)(=O)Oc2cccc(C3CCC(=O)NC3=O)c2)CC2(CCOC2)O1 (stereo not shown) [FL6-8] |  |
| 741 | CC1(C)CN(S(=O)(=O)Oc2ccc(Nc3cccc4c3C(=O)N(C3CCC(=O)NC3=O)C4=O)cc2)CCS1(=O)=O (stereo not shown) [FL4-7] |  |
| 408 | O=C1CCC(N2C(=O)c3cccc(Nc4cccc(OS(=O)(=O)N5CC(CCO)C5)c4)c3C2=O)C(=O)N1 (stereo not shown) [FL3-2] |  |
| 742 | CC1c2cccn2CCN1S(=O)(=O)Oc1cccc(Nc2cccc3c2C(=O)N(C2CCC(=O)NC2=O)C3=O)c1 (stereo not shown) [FL3-19] |  |
| 458 | O=C1CCC(N2C(=O)c3ccc(Nc4ccc(OS(=O)(=O)N5CCOCC5)cc4)cc3C2=O)C(=O)N1 (stereo not shown) [FL2-5] |  |
| 948 | CC(C)(O)C1CCN(S(=O)(=O)Oc2ccc(C3CCC(=O)NC3=O)cc2)C1 (stereo not shown) [FL5-4] |  |
| 4780 | O=C1CCC(N2C(=O)c3ccc(Nc4ccc(OS(=O)(=O)N5CCC(c6ccco6)C5)cc4)cc3C2=O)C(=O)N1 (stereo not shown) [FL2-12] |  |
| 688 | CC(C)(O)C1CCN(S(=O)(=O)Oc2ccc(Nc3cccc4c3C(=O)N(C3CCC(=O)NC3=O)C4=O)cc2)C1 (stereo not shown) [FL4-4] |  |
| 3030 | C[C@@H]1C[C@H](C)CN(S(=O)(=O)Oc2cccc(Nc3ccc4c(c3)C(=O)N(C3CCC(=O)NC3=O)C4=O)c2)C1 (stereo partly shown) [FL1-6] |  |
| 1020 | CN(C1CC1)S(=O)(=O)Oc1cccc(Nc2cccc3c2C(=O)N(C2CCC(=O)NC2=O)C3=O)c1 (stereo not shown) [FL3-21] |  |
| 679 | O=C1CCC(c2cccc(OS(=O)(=O)N3CCOCC3)c2)C(=O)N1 (stereo not shown) [FL6-5] |  |

| EC50 [1] [nM] | SMILES | EC50 [nM] |
| --- | --- | --- |
| 705 | O=C1CCC(c2ccc(OS(=O)(=O)N3CCC(c4ccco4)C3)cc2)C(=O)N1 (stereo not shown) [FL5-12] |  |
| 898 | CC1c2cccn2CCN1S(=O)(=O)Oc1cccc(Nc2ccc3c(c2)C(=O)N(C2CCC(=O)NC2=O)C3=O)c1 (stereo not shown) [FL1-19] |  |
| 622 | CN(Cc1ccc2c(c1)OCO2)S(=O)(=O)Oc1cccc(C2CCC(=O)NC2=O)c1 (stereo not shown) [FL6-20] |  |
| 1080 | Cc1cn2c(n1)CN(S(=O)(=O)Oc1cccc(C3CCC(=O)NC3=O)c1)CC2 (stereo not shown) [FL6-13] |  |
| 990 | CN(Cc1ccc2[nH]nnc2c1)S(=O)(=O)Oc1cccc(Nc2cccc3c2C(=O)N(C2CCC(=O)NC2=O)C3=O)c1 (stereo not shown) [FL3-15] |  |
| 1300 | CC(C)(O)C1CCN(S(=O)(=O)Oc2cccc(C3CCC(=O)NC3=O)c2)C1 (stereo not shown) [FL6-4] |  |
| 872 | CN(C)c1ncc(CN(C)S(=O)(=O)Oc2ccc(Nc3ccc4c(c3)C(=O)N(C3CCC(=O)NC3=O)C4=O)cc2)cn1 (stereo not shown) [FL2-18] |  |
| 1060 | O=C1CCC(c2ccc(OS(=O)(=O)N3CC(CCO)C3)cc2)C(=O)N1 (stereo not shown) [FL5-2] |  |
| 1610 | CN(C)c1ncc(CN(C)S(=O)(=O)Oc2ccc(Nc3cccc4c3C(=O)N(C3CCC(=O)NC3=O)C4=O)cc2)cn1 (stereo not shown) [FL4-18] |  |
| 2620 | CN(Cc1ccc2c(c1)OCO2)S(=O)(=O)Oc1ccc(Nc2ccc3c(c2)C(=O)N(C2CCC(=O)NC2=O)C3=O)cc1 (stereo not shown) [FL2-20] |  |
| 731 | CC1(C)CN(S(=O)(=O)Oc2ccc(Nc3ccc4c(c3)C(=O)N(C3CCC(=O)NC3=O)C4=O)cc2)CCS1(=O)=O (stereo not shown) [FL2-7] |  |
| 449 | CN(Cc1ncnn1C)S(=O)(=O)Oc1cccc(Nc2cccc3c2C(=O)N(C2CCC(=O)NC2=O)C3=O)c1 (stereo not shown) [FL3-11] |  |
| 803 | CC1c2cc(F)ccc2CCN1S(=O)(=O)Oc1cccc(C2CCC(=O)NC2=O)c1 (stereo not shown) [FL6-17] |  |
| 2130 | CN(Cc1ccc2[nH]nnc2c1)S(=O)(=O)Oc1ccc(Nc2cccc3c2C(=O)N(C2CCC(=O)NC2=O)C3=O)cc1 (stereo not shown) [FL4-15] |  |
| 538 | CN(Cc1ncnn1C)S(=O)(=O)Oc1ccc(Nc2cccc3c2C(=O)N(C2CCC(=O)NC2=O)C3=O)cc1 (stereo not shown) [FL4-11] |  |
| 1140 | CN(C1CC1)S(=O)(=O)Oc1ccc(Nc2ccc3c(c2)C(=O)N(C2CCC(=O)NC2=O)C3=O)cc1 (stereo not shown) [FL2-21] |  |
| 1970 | O=C1CCC(N2C(=O)c3ccc(Nc4ccc(OS(=O)(=O)N5CCC(c6ccncc6)CC5)cc4)cc3C2=O)C(=O)N1 (stereo not shown) [FL2-16] |  |
| 914 | C[C@@H](O)CN(C)S(=O)(=O)Oc1ccc(C2CCC(=O)NC2=O)cc1 (stereo partly shown) [FL5-1] |  |
| 899 | CN(C1CC1)S(=O)(=O)Oc1ccc(C2CCC(=O)NC2=O)cc1 (stereo not shown) [FL5-21] |  |
| 1070 | CN(C1CC1)S(=O)(=O)Oc1cccc(C2CCC(=O)NC2=O)c1 (stereo not shown) [FL6-21] |  |
| 1650 | CN(Cc1ccc2[nH]nnc2c1)S(=O)(=O)Oc1ccc(Nc2ccc3c(c2)C(=O)N(C2CCC(=O)NC2=O)C3=O)cc1 (stereo not shown) [FL2-15] |  |
